Experimental data: patent publication US10975116B2, “Methods of treating and preventing gastrointestinal motility disorders using aminosterols” (Enterin, Inc., priority 2013, dated 2021)
“Also recorded” adds a separate entry of the source.

Legend:
[1] = test system: Parkinson's-like syndrome; test: Oral squalamine in Parkinson's-like syndrome without GI disorders, single subject; assay type: in vivo, human
Description: The individual was a person. They were a psychiatrist specializing in addiction. Movement disorder began. Original diagnosis was multiple sclerosis. Presenting symptoms were depression and difficulty in controlling the action of sitting in chair. They would “plop” onto a sit without braking the movement. […] Treatment with L-DOPA caused some correction of the sitting difficulty, leading to the presumptive diagnosis of Parkinson's disease. Therapy continued with increasing doses of Sinemet, followed by addition of ropinirole. Deterioration continued (despite an L-DOPA dose exceeding 10-11 pills/day), ropinirole (5×2 mg and 4×1 mg, daily) and amantadine was added. They were on Wellbutryn for depression. There had been no history of GI disorders, and bowel function was said to be normal.
The individual lived at home with a spouse and 2 children. They had to be driven to work. Walking was unsteady. Their speech was nearly incomprehensible. Face was mask-like. No obvious tremors. Walking was hesitant. Subject had fallen (or tripped) several times previously and used a cane.

[2] = test system: mucinous adenocarcinoma (Stage 4b colon cancer); test: Oral squalamine in Stage 4b colon cancer, single subject; assay type: in vivo, human
Description: A person presented with abdominal distention, pain, and progressive weight loss of several months duration.
The individual was begun on a total daily dose of 50 mg of squalamine, administered as 25 mg twice daily, as a powder dispersed in apple sauce. Approximately 6 months after initiation of squalamine treatment the individual was seen again at the hospital due to the chance recognition of a mass on their right kidney. The kidney was surgically removed, and during the procedure the peritoneum explored. […] The mass on the kidney was a benign cyst. Treatment with squalamine continued daily for 5 years. […] The subject died […] of a myocardial infarction.

[3] = test system: Opioid induced constipation; test: Oral squalamine in opioid (codeine) induced constipation, single subject; assay type: in vivo, human
Description: A normal subject began dosing with 1 tab codeine 30 mg/acetaminophen 300 mg at 8 A on Day 1, and repeated on Day 2 and Day 3. Normal bowel movement frequency was 1 or more stools/day, normally formed. Prior to codeine on Day 1, subject passed a normal stool in the AM. No bowel movements from the start of dosing through the 8 A Day 3 dose. No cramping; some gas. Some sense of fullness on the evening of Day 2.
At 9:15 A subject was administered 200 mg cap of squalamine. […] No nausea. […] A second smaller stool was passed at 12:30. […] The rapid effect on colonic motility seems unlikely to have been a direct effect of squalamine on the colon, but perhaps a downstream consequence of enteric nervous system stimulation. On Day 4, 30 mg codeine. No squalamine dosing. 7 P passed a loose stool of normal volume.

[4] = test system: mesenteric nerve; test: Mesenteric nerve multiunit recording after intraluminal squalamine in colon; assay type: in vivo, mouse
Description: Under appropriate and approved anesthesia, the distal colon of a mouse was externalized from the abdomen, along with the mesentary. The mesenteric blood vessels and lymphatics were carefully dissected from the mesenteric nerve, a structure that contains both the vagus (efferent and afferent) and spinal afferents. The nerve was cut, and the free end (which receives signals from the gut) was introduced into a capillary housing a silver electrode, along with the appropriate electronics required to detect and amplify weak electrical signals pulsing from the gut through the mesenteric nerve. […] Concentrations of 3, 10, 30 and 100 μM squalamine were evaluated. Responses to squalamine application were discernible at 30 μM but robust and reproducible responses were first evident at 100 μM. […] Paired experiments were comparisons of average discharge rates of a control recording period with a three-minute period during the peak response to squalamine. Statistical comparisons were made using paired t-tests. Squalamine increased the background firing rate from (mean±SD) 2.0±1.2 to 5.2±3.1 Hz (P=0.03). The latency to the onset of the firing increase was 4.4±4.1 min, while the latency to peak of the firing rate increase 12±7.5 min (FIG. 1).

[5] = test system: Irritable Bowel Syndrome (IBS); test: Oral squalamine in Irritable Bowel Syndrome, single subject; assay type: in vivo, human
Description: A person, in otherwise good health, was suffering from the “mixed” form of IBS since early childhood. The condition was characterized by a failure to feel “cleared” after the passage of a stool; occasional crampiness; abdominal bloating and a sense of “fullness.” The condition caused them to be “conscious of their bowels” throughout the day, and frequently interrupted their sleep. Attempts to relieve themself on the toilet would generally be ineffective, leaving them with the feeling of “still having to go.”
On day 1 the individual was administered a single 200 mg capsule of squalamine, orally, on an empty stomach with water. Within 2 hrs they experienced nausea, at 3 hrs they vomited, followed soon after by the passage of about 200 ml of clear discharge rectally. By 3.5 hrs the nausea had passed. They ate normally at lunch and dinner. […] Slept better than they had in many years. The first stool was passed on Day 4, was soft and passed easily, and then successively on Days 5, 6, 7, and 8. Beginning at Day 6, they began to experience the prior GI symptoms. By Day 8, their usual GI symptoms had returned.
A second dosing trial was begun on Day 15, with a 50 mg capsule administered. […] Bowel movement was passed on Day 17. A 25 mg capsule was administered on Day 19. […] It was assumed that 50 mg dosed every other day was an optimum regimen. The individual remained on a dosing schedule of 50 mg orally every other day.

[6] = test system: embryonal rhabdomyosarcoma; test: Oral squalamine in sarcoma with dose finding by GI response, single subject; assay type: in vivo, human
Description: A person was seen because of the recurrence of an embryonal rhabdomyosarcoma. They noticed a mass in their left groin. […] The mass was surgically excised. The patient was then treated with a cocktail of chemotherapeutic agents. Several months later the mass was seen to recur in the left groin. The mass was again excised. Several months later, a tumor was gain noted in the groin, with a large mass present in the left lung.
At 300 mg daily, a clear effect was noted, that being mild nausea, 2 hours after dosing, followed by a bowel movement later in the day.

[7] = 100 μM intraluminal, 5 experiments
[8] = intraluminal, 3, 10, 30 and 100 μM evaluated
[9] = single 200 mg capsule Day 1, empty stomach

squalamine
Observations ([1]; Day 1, 100 mg cap): No obvious GI response. Continued
Observations ([1]; Day 21, 100 mg every other day, then began 200 mg every other day): articulation had become noticeably better; also recorded: improving and their energy level was increasing
Observations ([1]; Month 3, subject ran out of squalamine 2 weeks prior (cessation)): worst constipation they had ever remembered.”; also recorded: that he “was not feeling as good”
Observations ([1]; Month 5, 100 mg every other day raised to 200 mg every day at month 5.5): mg every day at month 5.5. No GI; also recorded: colleagues noted improvement. Took; also recorded: several falls which they attributed
Observations ([1]; Month 6, 200 mg every day): Individual could compensate being pulled; also recorded: told me that they felt their balance had improved; also recorded: Still had difficulty initiating; also recorded: No tremor; also recorded: Voice was of low; also recorded: volume. Face was still mask-like; also recorded: Once moving subject walked without; also recorded: Medication dosing had not changed
tumor at surgical exploration of the peritoneum ([2]; 50 mg/day (25 mg twice daily, powder in apple sauce), approximately 6 months): No tumor was visible
recurrence ([2]; daily treatment for 5 years): no recurrence of cancer
bowel response ([3]; 200 mg cap at 9:15 A on Day 3 of codeine 30 mg/acetaminophen 300 mg, no stool since start, stool at 11:15 A): passed a large soft, well formed stool with normal urgency; also recorded: A sense of bowel relief was appreciated
nausea and rectal fluid ([3]; 200 mg cap at 9:15 A on Day 3 of codeine dosing): No nausea; also recorded: No clear rectal fluid
latency to peak of the firing rate increase [4, 7]: 12 ± 7.5 min
latency to the onset of the firing increase [4, 7]: 4.4 ± 4.1 min
mesenteric nerve multiunit firing rate at peak response (mean±SD) ([4]; 100 μM intraluminal, 5 experiments, background 2.0±1.2 Hz, P=0.03): 5.2±3.1 Hz
effect on mesenteric nerve firing frequency (FIGS. 1A-1C) ([4]; intraluminal squalamine): increases mesenteric nerve firing frequency
concentration at which responses were discernible [4, 8]: 30 µM
concentration at which robust and reproducible responses were first evident [4, 8]: 100 µM
response to 25 mg capsule ([5]; 25 mg capsule on Day 19): By Day 21 the previous symptoms of IBS were returning
response to 50 mg capsule ([5]; 50 mg capsule on Day 15): Neither nausea nor a discharge was experienced; also recorded: Sense of bowel quiet was experienced
IBS status on maintenance dosing ([5]; 50 mg orally every other day, at 10 months): no longer experiences symptoms of IBS; also recorded: Bowel movements are of normal consistency; also recorded: Sleep is no longer interrupted by urgency to defecate
nausea had passed, time after dosing [5, 9]: ≤ 3.5 h
volume of clear discharge passed rectally [5, 9]: about 200 ml
vomiting, time after dosing [5, 9]: 3 h
nausea, time of onset after dosing ([5]; single 200 mg capsule Day 1, empty stomach, person with mixed IBS): ≤ 2 h
first stool passed ([5]; single 200 mg capsule on Day 1): Day 4
period of bowel quiet without cramping or urgency ([5]; single 200 mg capsule on Day 1): Day 1 through Day 5
return of usual GI symptoms ([5]; single 200 mg capsule on Day 1): Day 8
GI response ([6]; 100 mg capsules for several days): without any noticeable GI symptoms
GI response ([6]; 200 mg daily): without any GI response
GI response ([6]; 300 mg daily): mild nausea
mild nausea, time after dosing ([6]; 300 mg daily): 2 h
tumor status ([6]; 2 months post surgery, dosing continued): no evidence of pulmonary tumors nor evidence of recurrence of any soft tissue tumor in the groin
finding in surgically removed lung tumor ([6]; 3 weeks after initiation of dosing): massive internal hemorrhage due to blood vessel damage
